Data reported in US20220386635A1, “NITRITE REPLACEMENT (CURING AIDS) CONTAINING NATURAL INGREDIENTS” (KEMIN INDUSTRIES, INC., priority 2021, published 2022).
Several values for one entry are separate records, joined by “and”; a condition that tells them apart may be missing. Identical values can stand only once. Like-named read-outs stand apart in the source and are kept apart here. Marks after values point to notes of the source that are not given here.

Tests used:
[1] = Lipid oxidation (TBARS) in cooked sausages; details: 7° C., shelf life of 8 weeks; threshold for off-odor 0.5 ppm
[2] = Color evaluation (L*a*b*, C*, hue) of sausages with black carrot extract, Example 2; details: 50 days at 7° C., dark or illuminated last 72 h
botulinum toxin = tested on: botulinum toxin; design: species or system Clostridium botulinum
[3] = Physico-chemical parameters of low salt emulsified cooked pork sausages, Example 6
Listeria monocytogenes [4] = assay: Listeria monocytogenes challenge study, Example 6; assay type: cell-based; details: after 3 weeks at 7° C.; inoculum 2.6 log10CFU/g
Listeria monocytogenes [5] = assay: Listeria monocytogenes challenge test, Example 5 experiment 1; assay type: cell-based
[6] = tested on: C. botulinum spores (Type A: NCTC 7272, Type E: LFMFP-CB 707 and Type E: LFMFP-CB 666); assay type: cell-based, Clostridium botulinum; details: 7° C.; for Anaerobic count: Blend 0.4%, Repl 1 and Repl 2
C. botulinum spores = assay type: cell-based, Clostridium botulinum
[7] = low salt (1.2%) sausage, dosages per Table 23
[8] = low salt sausage, dosages per Table 23

O=NO [Positive control, sodium nitrite]
Lipid oxidation (TBARS values) [1]: maintain low TBARS values
Color stability during storage [2]: faded drastically
Number of samples in which botulinum toxin was detected to total analyzed samples (botulinum toxin): 0/2
aw ([3]; 25° C., low salt sausage, dosages per Table 23): 0.978
Salt content ([3]; calculated based on sodium content, low salt sausage): 1.55%
Salt content in aqueous phase ([3]; calculated from salt content and moisture content): 2.9%
pH of cooked meat [3, 7]: 6.21^a
pH of meat batter [3, 7]: 5.87^ab
Acetic acid content [3, 8]: 0.008%
Moisture content [3, 8]: 52.3%
L. monocytogenes count (Listeria monocytogenes [4]): more than 7 log10CFU/g
L. monocytogenes count (Listeria monocytogenes [5]; after 8 weeks at 7° C., inoculum 300 CFU/g): 7 log10CFU/g
time to 1 log increase of L. monocytogenes (Listeria monocytogenes [5]; positive control with nitrite, 7° C.): 14 days
growth of C. botulinum ([6]; 8 weeks, 0.4% of the invented blend): no growth
Anaerobic count ([6]; storage time 0 days): 3.08 log10CFU/g and 2.73 log10CFU/g
Anaerobic count ([6]; storage time 14 days): 2.75 log10CFU/g and 2.70 log10CFU/g
Anaerobic count ([6]; storage time 28 days): 2.61 log10CFU/g and 2.62 log10CFU/g
Anaerobic count ([6]; storage time 42 days): 2.67 log10CFU/g and 2.46 log10CFU/g
Anaerobic count ([6]; storage time 56 days): 2.49 log10CFU/g and 2.43 log10CFU/g
Clostridium botulinum outgrowth (C. botulinum spores; 7° C., 8 weeks, significant growth = >0.5 log10CFU/g): no growth of C. botulinum
Anaerobic count (average ± standard deviation, n = 2) (C. botulinum spores; storage time 0 days at 7° C., dosages per Table 23): 3.7 ± 0.1 log10CFU/g
Anaerobic count (average ± standard deviation, n = 2) (C. botulinum spores; storage time 14 days at 7° C., * significant outgrowth (>0.5 log10CFU/g) in at least one replicate): 2.3 ± 0.3 log10CFU/g
Anaerobic count (average ± standard deviation, n = 2) (C. botulinum spores; storage time 24 days at 7° C., * significant outgrowth (>0.5 log10CFU/g) in at least one replicate): 2.4 ± 0.0 log10CFU/g
Anaerobic count (average ± standard deviation, n = 2) (C. botulinum spores; storage time 42 days at 7° C., * significant outgrowth (>0.5 log10CFU/g) in at least one replicate): 2.2 ± 0.1 log10CFU/g
Anaerobic count (average ± standard deviation, n = 2) (C. botulinum spores; storage time 56 days at 7° C., * significant outgrowth (>0.5 log10CFU/g) in at least one replicate): 2.2 ± 0.0 log10CFU/g
